The values below come from patent publication US20240166617A1, “PHOSPHOINOSITIDE 3 KINASE BETA INHIBITORS AND COMPOSITIONS AND METHODS THEREOF” (Geode Therapeutics Inc., priority 2021, published 2024).

The target of one test is T1, PIK3Cd_h (Homo sapiens, UniProt O00329).
T1 construct: purchased Eurofins DiscoveRx Corporation
T1 sequence (O00329 1-1044): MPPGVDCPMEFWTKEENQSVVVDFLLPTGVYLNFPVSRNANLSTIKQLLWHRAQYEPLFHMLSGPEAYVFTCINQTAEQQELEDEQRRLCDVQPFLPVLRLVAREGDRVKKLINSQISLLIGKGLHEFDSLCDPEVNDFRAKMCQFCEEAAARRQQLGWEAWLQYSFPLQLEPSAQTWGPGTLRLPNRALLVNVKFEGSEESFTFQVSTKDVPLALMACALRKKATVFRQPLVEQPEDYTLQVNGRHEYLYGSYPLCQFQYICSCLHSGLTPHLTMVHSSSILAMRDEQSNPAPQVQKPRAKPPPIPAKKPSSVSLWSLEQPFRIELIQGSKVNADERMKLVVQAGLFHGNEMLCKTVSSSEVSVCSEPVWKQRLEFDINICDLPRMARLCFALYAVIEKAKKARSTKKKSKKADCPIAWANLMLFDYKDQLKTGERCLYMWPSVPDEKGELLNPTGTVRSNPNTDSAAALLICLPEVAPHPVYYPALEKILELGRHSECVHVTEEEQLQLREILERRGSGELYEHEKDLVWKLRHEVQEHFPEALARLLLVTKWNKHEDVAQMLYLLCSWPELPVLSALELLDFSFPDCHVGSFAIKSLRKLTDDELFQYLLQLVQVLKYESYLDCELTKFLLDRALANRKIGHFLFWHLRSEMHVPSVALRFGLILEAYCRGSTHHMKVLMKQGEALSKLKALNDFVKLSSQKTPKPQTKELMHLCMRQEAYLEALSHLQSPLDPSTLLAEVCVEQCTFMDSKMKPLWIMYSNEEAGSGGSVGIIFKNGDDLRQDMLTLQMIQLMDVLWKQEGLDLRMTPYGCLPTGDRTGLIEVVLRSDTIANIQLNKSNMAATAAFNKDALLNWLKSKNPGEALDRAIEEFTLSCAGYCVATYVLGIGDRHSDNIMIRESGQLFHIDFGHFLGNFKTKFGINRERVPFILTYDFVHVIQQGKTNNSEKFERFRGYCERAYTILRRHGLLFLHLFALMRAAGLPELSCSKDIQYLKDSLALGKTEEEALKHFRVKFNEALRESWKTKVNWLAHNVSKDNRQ
Briefly: Enzyme binding assay (KINOMEscan). To be noted: Eurofins DiscoveRx. How it is done: (§1) Kinase enzyme binding affinities of compounds disclosed herein were determined using the KINOMEscan technology performed by Eurofins DiscoveRx Corporation, San Diego, California, USA (www.eurofinsdiscoveryservices.com). Table 2 reports the obtained PIK3β Kd values (nM) of, with the PIK3β Kd being the inhibitor binding constant. Table 3 reports the obtained Kd values (nM), with the Kd being the inhibitor binding constant: […]

The target in a further test is T2, PIK3Ca_h (Homo sapiens, UniProt P42336).
T2 construct: purchased Eurofins DiscoveRx Corporation
T2 sequence (P42336 whole entry): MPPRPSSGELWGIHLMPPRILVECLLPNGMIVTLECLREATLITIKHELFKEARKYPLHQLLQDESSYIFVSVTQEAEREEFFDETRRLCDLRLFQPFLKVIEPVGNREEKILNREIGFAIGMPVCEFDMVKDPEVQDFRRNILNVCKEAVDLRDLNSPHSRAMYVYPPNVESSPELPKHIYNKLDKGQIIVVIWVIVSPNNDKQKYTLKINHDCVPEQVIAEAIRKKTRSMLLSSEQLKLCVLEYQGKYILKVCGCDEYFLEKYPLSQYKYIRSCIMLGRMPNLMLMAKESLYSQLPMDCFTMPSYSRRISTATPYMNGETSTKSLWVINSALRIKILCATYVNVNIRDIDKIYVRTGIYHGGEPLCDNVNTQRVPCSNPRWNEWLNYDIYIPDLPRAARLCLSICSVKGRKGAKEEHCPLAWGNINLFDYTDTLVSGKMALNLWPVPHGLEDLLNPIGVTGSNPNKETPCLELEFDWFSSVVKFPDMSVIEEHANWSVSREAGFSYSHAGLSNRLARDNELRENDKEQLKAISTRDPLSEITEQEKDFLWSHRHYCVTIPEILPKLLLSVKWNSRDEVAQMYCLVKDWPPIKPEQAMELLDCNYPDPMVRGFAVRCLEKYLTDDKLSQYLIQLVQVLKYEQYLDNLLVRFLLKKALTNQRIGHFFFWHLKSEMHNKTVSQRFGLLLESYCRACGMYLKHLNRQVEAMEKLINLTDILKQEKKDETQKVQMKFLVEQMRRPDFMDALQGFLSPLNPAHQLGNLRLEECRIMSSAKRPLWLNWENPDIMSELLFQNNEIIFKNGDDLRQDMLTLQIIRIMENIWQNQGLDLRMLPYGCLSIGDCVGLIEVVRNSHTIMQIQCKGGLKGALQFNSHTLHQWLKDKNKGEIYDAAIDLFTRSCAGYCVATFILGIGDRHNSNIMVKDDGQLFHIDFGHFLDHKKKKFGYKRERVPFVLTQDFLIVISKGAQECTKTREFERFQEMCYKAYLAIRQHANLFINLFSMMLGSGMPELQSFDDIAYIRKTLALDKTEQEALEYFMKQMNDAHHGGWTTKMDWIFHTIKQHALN
Briefly: Enzyme binding assay (KINOMEscan). To be noted: Eurofins DiscoveRx. How it is done: as §1

A further test deals with T3, PIK3Cb_h (Homo sapiens, UniProt P42338).
T3 construct: purchased Eurofins DiscoveRx Corporation
T3 sequence (P42338 whole entry): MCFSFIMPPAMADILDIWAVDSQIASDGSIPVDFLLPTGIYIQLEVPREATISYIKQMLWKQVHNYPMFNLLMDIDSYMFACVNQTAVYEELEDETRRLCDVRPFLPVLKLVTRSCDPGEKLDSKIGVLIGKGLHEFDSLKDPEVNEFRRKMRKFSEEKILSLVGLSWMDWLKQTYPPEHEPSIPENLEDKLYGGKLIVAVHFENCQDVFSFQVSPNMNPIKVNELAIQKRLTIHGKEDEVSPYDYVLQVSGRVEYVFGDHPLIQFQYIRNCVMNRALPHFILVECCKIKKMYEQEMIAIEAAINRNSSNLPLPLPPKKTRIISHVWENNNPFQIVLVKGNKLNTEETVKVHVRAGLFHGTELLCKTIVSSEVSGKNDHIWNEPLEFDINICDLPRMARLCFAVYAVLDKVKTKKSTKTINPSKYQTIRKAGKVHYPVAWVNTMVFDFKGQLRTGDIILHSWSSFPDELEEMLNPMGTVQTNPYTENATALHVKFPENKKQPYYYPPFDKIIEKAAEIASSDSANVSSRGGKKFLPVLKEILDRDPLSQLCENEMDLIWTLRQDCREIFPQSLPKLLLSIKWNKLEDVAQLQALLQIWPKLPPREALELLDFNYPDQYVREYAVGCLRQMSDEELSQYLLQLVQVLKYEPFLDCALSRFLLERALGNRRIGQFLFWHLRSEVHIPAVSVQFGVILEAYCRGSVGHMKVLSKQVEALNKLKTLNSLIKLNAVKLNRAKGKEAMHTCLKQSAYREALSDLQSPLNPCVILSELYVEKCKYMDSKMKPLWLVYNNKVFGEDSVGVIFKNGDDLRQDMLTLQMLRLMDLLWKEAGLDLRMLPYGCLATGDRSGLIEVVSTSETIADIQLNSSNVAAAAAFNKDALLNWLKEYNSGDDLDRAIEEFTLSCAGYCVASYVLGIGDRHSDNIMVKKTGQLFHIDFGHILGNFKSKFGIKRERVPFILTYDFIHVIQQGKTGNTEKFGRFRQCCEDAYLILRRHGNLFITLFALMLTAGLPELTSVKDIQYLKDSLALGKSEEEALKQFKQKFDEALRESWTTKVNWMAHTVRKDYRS
Briefly: Enzyme binding assay (KINOMEscan). To be noted: Eurofins DiscoveRx. As for the experimental part: as §1

In another test the target is T4, PIK3Cg_h (Homo sapiens, UniProt P48736).
T4 construct: purchased Eurofins DiscoveRx Corporation
T4 sequence (P48736 whole entry): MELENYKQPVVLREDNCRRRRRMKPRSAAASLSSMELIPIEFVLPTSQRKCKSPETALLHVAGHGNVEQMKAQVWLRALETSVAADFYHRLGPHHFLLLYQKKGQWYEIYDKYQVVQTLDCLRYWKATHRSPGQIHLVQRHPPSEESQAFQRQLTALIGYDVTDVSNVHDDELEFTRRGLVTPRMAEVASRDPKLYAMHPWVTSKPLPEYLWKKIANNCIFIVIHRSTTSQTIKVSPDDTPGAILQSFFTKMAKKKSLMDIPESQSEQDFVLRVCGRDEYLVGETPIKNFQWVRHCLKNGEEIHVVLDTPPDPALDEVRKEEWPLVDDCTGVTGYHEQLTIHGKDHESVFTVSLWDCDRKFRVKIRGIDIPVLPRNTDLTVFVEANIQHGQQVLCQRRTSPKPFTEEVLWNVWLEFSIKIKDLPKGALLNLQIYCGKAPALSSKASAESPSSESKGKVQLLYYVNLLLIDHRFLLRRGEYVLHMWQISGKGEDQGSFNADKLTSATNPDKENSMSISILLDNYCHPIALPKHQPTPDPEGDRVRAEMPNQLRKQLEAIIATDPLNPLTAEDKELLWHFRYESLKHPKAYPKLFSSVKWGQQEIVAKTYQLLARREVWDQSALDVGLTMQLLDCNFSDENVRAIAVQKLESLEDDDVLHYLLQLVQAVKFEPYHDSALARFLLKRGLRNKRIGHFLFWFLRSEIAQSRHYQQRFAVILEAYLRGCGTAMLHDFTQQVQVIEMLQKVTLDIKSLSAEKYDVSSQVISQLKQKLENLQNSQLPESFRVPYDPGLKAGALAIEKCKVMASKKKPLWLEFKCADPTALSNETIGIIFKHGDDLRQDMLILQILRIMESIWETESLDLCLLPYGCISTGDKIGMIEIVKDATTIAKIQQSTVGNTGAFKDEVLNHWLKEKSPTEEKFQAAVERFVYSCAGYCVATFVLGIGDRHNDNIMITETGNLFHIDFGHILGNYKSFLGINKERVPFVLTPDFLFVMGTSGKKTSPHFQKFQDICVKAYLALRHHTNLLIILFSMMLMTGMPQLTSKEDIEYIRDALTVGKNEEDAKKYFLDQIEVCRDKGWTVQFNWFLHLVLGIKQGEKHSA
Briefly: Enzyme binding assay (KINOMEscan). To be noted: Eurofins DiscoveRx. How it is done: as §1

The test system of test [1] is phosphorylation of AKT in HCC70 cells. Briefly: Cellular assay: phosphorylation of AKT in HCC70 cells (western blotting). The format is cell-based. Particulars: Homo sapiens, HCC70, 1 h, HCC70 cells, compound 500 nM, 60 min, inhibition of Akt activity from band intensities. The essentials: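 HCC70 cells treated with compound at 500 nM (0.1% DMSO control) for 60 min at 37 °C; pAKT Ser473 and Thr308 plus total AKT measured by western blot with fluorescent detection. Inhibition from band intensities, binned as + (20–60%), ++ (60–80%), +++ (80–90%), ++++ (>90%).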
For orientation: A western blot detects proteins with antibodies after separation by electrophoresis.

Where [2] appears, read: read-out: Index of AI (HCC70) p-AKT Thr 308.
[3] abbreviates: read-out: Index of AI (HCC70) p-AKT ser 473.

Molecules are shown by their SMILES. Read-outs that look alike come from different tables or passages of the source.

The Kd is a measure of binding affinity in units of concentration. The low end stands for higher affinity, the high end for lower affinity. Consider `CC(Nc1cc(F)cc(F)c1)c1cc(C(=O)N2CCC(N(C)C)C2)cn2c(=O)cc(N3CCOCC3)nc12` (single isomer, unassigned) [Compound 48-P1], for which the Kd on PIK3Cd_h is > 10000 nM; on PIK3Ca_h, > 10000 nM; on PIK3Cb_h it was 400 nM; on PIK3Cg_h, > 10000 nM.

Consider `CC(Nc1cc(F)cc(F)c1)c1cc(N2CCOCC2=O)cc2c(=O)cc(N3CCOCC3)oc12` (stereo not shown) [Compound 10, 4-(8-(1-((3,5-difluorophenyl)amino)ethyl)-2-morpholino-4-oxo-4H-chromen-6-yl)morpholin-3-one], for which the Kd was found to be 8 nM on PIK3Cd_h, 22 nM at PIK3Ca_h, 0.2 nM at PIK3Cb_h and 730 nM on PIK3Cg_h. In addition, the inhibition at 0.5 µM in test [1] (setting [2]) and in test [1] (setting [3]) was > 90% in each case.

For the compound `CNS(=O)(=O)c1cc(C(C)Nc2cc(F)cc(F)c2)c2oc(N3CCOCC3)cc(=O)c2c1` (stereo not shown) [Compound 16, 8-(1-((3,5-difluorophenyl)amino)ethyl)-N-methyl-2-morpholino-4-oxo-4H-chromene-6-sulfonamide], the Kd at PIK3Cd_h is 8.1 nM; on PIK3Ca_h, 36 nM; at PIK3Cb_h, 0.19 nM; on PIK3Cg_h it was 110 nM. The inhibition at 0.5 µM in test [1] (setting [2]) and in test [1] (setting [3]) was > 90% throughout.

`CC(Nc1cc(F)cc(F)c1)c1cc(NC2=NC(C)(C)CO2)cc2c(=O)cc(N3CCOCC3)oc12` (stereo not shown) [Compound 21, 8-(1-((3,5-difluorophenyl)amino)ethyl)-6-((4,4-dimethyl-4,5-dihydrooxazol-2-yl)amino)-2-morpholino-4H-chromen-4-one]: the Kd at PIK3Cd_h was 58 nM; at PIK3Ca_h it was 45 nM; at PIK3Cb_h, 0.31 nM; on PIK3Cg_h, 2200 nM. For the same compound, the inhibition at 0.5 µM in test [1] (setting [2]) and in test [1] (setting [3]) was 80 to 90% in each case.

Turning to `CN(C)C(=O)c1cc(CN2CCc3c(F)cc(F)cc32)c2oc(N3CCOCC3)cc(=O)c2c1` [Compound 32, 8-((4,6-difluoroindolin-1-yl)methyl)-N,N-dimethyl-2-morpholino-4-oxo-4H-chromene-6-carboxamide], the Kd amounted to 19 nM at PIK3Cd_h, 54 nM at PIK3Ca_h, 0.18 nM at PIK3Cb_h and 500 nM on PIK3Cg_h. The inhibition at 0.5 µM in test [1] (setting [2]) and in test [1] (setting [3]) was > 90% in each case.

Consider `CC1Cc2c(F)cccc2N1Cc1cc(C(=O)N(C)C)cc2c(=O)cc(N3CCOCC3)oc12` (stereo not shown) [Compound 33, 8-((4-fluoro-2-methylindolin-1-yl)methyl)-N,N-dimethyl-2-morpholino-4-oxo-4H-chromene-6-carboxamide], for which the Kd was 12 nM at PIK3Cd_h, 17 nM at PIK3Ca_h, 0.49 nM on PIK3Cb_h and 320 nM at PIK3Cg_h. The inhibition at 0.5 µM in test [1] (setting [2]) and in test [1] (setting [3]) was > 90% throughout.

For the compound `CC(Nc1cc(F)cc(F)c1)c1cc(C(=O)N2CCC(N(C)C)C2)cn2c(=O)cc(N3CCOCC3)nc12` (stereo not shown) [Compound 48, 9-(1-((3,5-difluorophenyl)amino)ethyl)-7-(3-(dimethylamino)pyrrolidine-1-carbonyl)-2-morpholino-4H-pyrido[1,2-a]pyrimidin-4-one], the Kd amounted to 40 nM at PIK3Cd_h, 130 nM on PIK3Ca_h, 0.26 nM at PIK3Cb_h and 730 nM at PIK3Cg_h. Moreover, the inhibition at 0.5 µM in test [1] (setting [2]) and in test [1] (setting [3]) was 80 to 90% each time.

Consider `C[C@@H](Nc1cc(F)cc(F)c1)c1cc(C(=O)N2CC[C@@H](N(C)C)C2)cn2c(=O)cc(N3CCOCC3)nc12` [Compound 48-P3, 9-((R)-1-((3,5-difluorophenyl)amino)ethyl)-7-((R)-3-(dimethylamino)pyrrolidine-1-carbonyl)-2-morpholino-4H-pyrido[1,2-a]pyrimidin-4-one], for which the Kd on PIK3Cd_h is 8.9 nM; at PIK3Ca_h, 92 nM; at PIK3Cg_h, 1100 nM.

Turning to `C[C@@H](Nc1cc(F)cc(F)c1)c1cc(C(=O)N2CC[C@H](N(C)C)C2)cn2c(=O)cc(N3CCOCC3)nc12` [Compound 48-P4, 9-((R)-1-((3,5-difluorophenyl)amino)ethyl)-7-((S)-3-(dimethylamino)pyrrolidine-1-carbonyl)-2-morpholino-4H-pyrido[1,2-a]pyrimidin-4-one], the Kd at PIK3Cd_h was 18 nM; on PIK3Ca_h, 190 nM; at PIK3Cg_h, 1600 nM.

Regarding `C[C@@H]1CN(c2cc(=O)c3cc(C(=O)N(C)C)cc(CN4CCc5c(F)cc(F)cc54)c3o2)CCO1` [Compound 90, (R)-8-((4,6-difluoroindolin-1-yl)methyl)-N,N-dimethyl-2-(2-methylmorpholino)-4-oxo-4H-chromene-6-carboxamide], the Kd was 1.5 nM on PIK3Cd_h, 3.2 nM on PIK3Ca_h, 0.075 nM on PIK3Cb_h and 87 nM on PIK3Cg_h. Also, the inhibition at 0.5 µM in test [1] (setting [2]) and in test [1] (setting [3]) was > 90% each time.

For `C[C@@H]1CN(c2cc(=O)c3cc(C(=O)N(C)C)cc(CN4CCc5c(F)cccc54)c3o2)CCO1` [Compound 91, (R)-8-((4-fluoroindolin-1-yl)methyl)-N,N-dimethyl-2-(2-methylmorpholino)-4-oxo-4H-chromene-6-carboxamide], the Kd at PIK3Cd_h was 7.4 nM; on PIK3Ca_h it was 22 nM; on PIK3Cb_h, 1 nM; at PIK3Cg_h, 230 nM. The inhibition at 0.5 µM in test [1] (setting [2]) and in test [1] (setting [3]) was > 90% in each case.
